pIC50: −log10 of the molar value. Where two headings read alike, the source gives them in different places.
Tests used:
H3K36me3 in A549 cells = test: In-Cell Western (ICW) assay of SETD2 inhibitors (A549 assay); type: cell-based, human; conditions: A549 cells, read-out: SETD2 A549
Summary of the method: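 H3K36me3 In-Cell Western: cells exposed to compound for 3 days at 4,000 cells/well, 37° C. DRAQ5 (1:1000) marked cell number, with 700/800-channel Licor read-out.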

SETD2(1434-1711) = target: T1, SETD2(1434-1711) (Homo sapiens, UniProt Q9BYW2); test: SETD2 (1434-1711) assay; type: biochemical; conditions: read-out: SETD2 (1434-1711)
T1 construct: SETD2 (1434-1711) Assay; catalogue N/A
T1 sequence (Q9BYW2 1434-1711): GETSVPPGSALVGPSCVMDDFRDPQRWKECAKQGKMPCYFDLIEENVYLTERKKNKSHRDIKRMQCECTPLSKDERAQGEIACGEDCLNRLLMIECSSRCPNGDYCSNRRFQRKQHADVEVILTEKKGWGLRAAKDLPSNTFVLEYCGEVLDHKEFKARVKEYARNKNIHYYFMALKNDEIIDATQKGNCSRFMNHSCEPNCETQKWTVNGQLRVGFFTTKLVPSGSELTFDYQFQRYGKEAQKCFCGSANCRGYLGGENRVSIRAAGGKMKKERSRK

| SMILES | pIC50 (H3K36me3 in A549 cells) | pIC50 (SETD2(1434-1711)) | pIC50 (H3K36me3 in A549 cells; Homo sapiens) |
| --- | --- | --- | --- |
| CCN(CC)CCS(=O)(=O)N1CCN(c2cccc(NC(=O)c3cc4cccc(C)c4[nH]3)c2)CC1 [compound 405] | 5.55 | 6.40 |  |
| Cc1cc(-c2cccnc2)cnc1C(NC(=O)c1cc2cccc(C)c2[nH]1)C1CC1 (stereo not shown) [compound 406] | 5.55 | 6.52 |  |
| Cc1ccc(N2CCN(C)CC2)cc1NC(=O)c1cc2c(F)ccc(C)c2[nH]1 [compound 407] | 5.55 | 6.52 |  |
| Cc1cccnc1C(Cc1ccccc1)NC(=O)c1cc2cccc(C)c2[nH]1 (stereo not shown) [compound 408] |  | 6.40 | 5.54 |
| Cc1ccc(F)c2cc(C(=O)Nc3ccc4cnc(CN5CCN(C)CC5)cc4c3)[nH]c12 [compound 409] | 5.52 | 7.00 |  |
| Cc1ccc(F)c2cc(C(=O)Nc3cncc(N4CCN(C)CC4)c3)[nH]c12 [compound 410] | 5.52 | 6.15 |  |
| Cc1ccc(F)c2cc(C(=O)Nc3cccc(N4C5CCC4C(=O)N(C)C5)c3)[nH]c12 (stereo not shown) [compound 411] | 5.52 | 6.10 |  |
| Cc1cc(C(=O)NC2CCN(C)CC2)cnc1C(NC(=O)c1cc2c(F)ccc(C)c2[nH]1)C1CC1 (stereo not shown) [compound 412] | 5.51 | 7.00 |  |
| Cc1ccc(F)c2cc(C(=O)Nc3cccc(N4CCC(NCCN)CC4)c3)[nH]c12 [compound 413] | 5.51 | 7.52 |  |
| Cc1cc(CCN2CCN(C)CC2)cnc1C(CCc1ccccc1)NC(=O)c1cc2c(F)ccc(C)c2[nH]1 (stereo not shown) [compound 414] | 5.49 | 7.10 |  |
| Cc1ccc(F)c2cc(C(=O)Nc3cccc4c(N5CCC(N(C)C)CC5)[nH]nc34)[nH]c12 [compound 415] |  | 7.00 | 5.49 |
| Cc1ccc(F)c2cc(C(=O)Nc3ccc4nc(NC5CCNCC5)ncc4c3)[nH]c12 [compound 416] |  | 7.40 | 5.48 |
| Cc1ccc(F)c2cc(C(=O)Nc3cccc(N4CCN(C(C)c5ccccc5)CC4)c3)[nH]c12 (stereo not shown) [compound 417] | 5.47 | 6.05 |  |
| Cc1ccc(F)c2cc(C(=O)Nc3cccc(CCN)c3)[nH]c12 [compound 418] | 5.47 | 7.00 |  |
| Cc1cccc2cc(C(=O)NC(c3ncccc3Cl)C3CC3)[nH]c12 (stereo not shown) [compound 419] |  | 6.10 | 5.47 |
| Cc1cccnc1C(CCC(=O)N1CCOCC1)NC(=O)c1cc2cccc(C)c2[nH]1 (stereo not shown) [compound 420] | 5.44 | 5.62 |  |
| Cc1ccc(F)c2cc(C(=O)Nc3cccc(CN4CCN(C)CC4)c3)[nH]c12 [compound 421] | 5.44 | 6.40 |  |
| Cc1ccc(F)c2cc(C(=O)Nc3cccc(N4C5COCC4C5)c3)[nH]c12 [compound 422] | 5.43 | 5.82 |  |
| Cc1cc(C2CCC(NC(=O)Cc3cccnc3)CC2)cnc1C(NC(=O)c1cc2cccc(C)c2[nH]1)C1CC1 (stereo not shown) [compound 423] | 5.42 | 6.22 |  |
| Cc1ccc(F)c2cc(C(=O)NC(c3nn4ccccc4c3C)C3CC3)[nH]c12 (stereo not shown) [compound 424] | 5.42 | 6.15 |  |
| Cc1ccc(F)c2cc(C(=O)Nc3cccc(C4CCCN4)c3)[nH]c12 (stereo not shown) [compound 425] | 5.41 | 6.52 |  |

| SMILES | pIC50 (H3K36me3 in A549 cells) | pIC50 (SETD2(1434-1711)) | pIC50 (H3K36me3 in A549 cells; Homo sapiens) |
| --- | --- | --- | --- |
| Cc1cc(-c2ccc(N)nc2)cnc1C(NC(=O)c1cc2cccc(C)c2[nH]1)C1CC1 (stereo not shown) [compound 426] | 5.41 | 6.40 |  |
| Cc1cccc2cc(C(=O)Nc3ccc4ncc(CN(C)C)n4c3)[nH]c12 [compound 427] | 5.40 | 6.40 |  |
| Cc1ccc(F)c2cc(C(=O)Nc3cccc(-c4ncc[nH]4)c3)[nH]c12 [compound 428] |  | 6.00 | 5.39 |
| Cc1cccc2cc(C(=O)Nc3cccc(N4CCN(S(=O)(=O)C5CCC(N)CC5)CC4)c3)[nH]c12 (stereo not shown) [compound 429] |  | 7.00 | 5.37 |
| Cc1cc(OCC(O)CNCc2cccnc2)cnc1C(NC(=O)c1cc2cccc(C)c2[nH]1)C1CC1 (stereo not shown) [compound 430] | 5.36 | 6.22 |  |
| C=Cc1ccc(C)c2[nH]c(C(=O)NC(CCC(=O)N3CCOCC3)c3ncccc3C)cc12 (stereo not shown) [compound 431] | 5.36 | 5.68 |  |
| Cc1c(C#N)ccnc1C(NC(=O)c1cc2c(F)ccc(C)c2[nH]1)C1CC1 (stereo not shown) [compound 432] |  | 6.15 | 5.35 |
| Cc1ccc(F)c2cc(C(=O)Nc3cccc(N4CCC(NCc5cnc[nH]5)CC4)c3)[nH]c12 [compound 433] |  | 7.52 | 5.34 |
| Cc1cccnc1C(CCC(=O)N1CCC(O)CC1)NC(=O)c1cc2cccc(C)c2[nH]1 (stereo not shown) [compound 434] | 5.34 | 5.37 |  |
| Cc1cc(CCN2CCN(C)CC2)cnc1C(NC(=O)c1cc2cccc(C)c2[nH]1)C1CC1 (stereo not shown) [compound 435] |  | 6.15 | 5.33 |
| Cc1ccc(F)c2cc(C(=O)Nc3cccc(N4CC5CCC(C4)C5N(C)C)c3)[nH]c12 (stereo not shown) [compound 436] | 5.33 | 6.52 |  |
| Cc1cccc2cc(C(=O)Nc3ccc4cnccc4c3)[nH]c12 [compound 437] | 5.32 | 6.22 |  |
| Cc1ccc(F)c2cc(C(=O)Nc3cccc(C4CCCCN4)c3)[nH]c12 (stereo not shown) [compound 438] |  | 6.52 | 5.31 |
| Cc1cccc2cc(C(=O)Nc3cccc(N4CCC(NC(=O)CN)CC4)c3)[nH]c12 [compound 439] | 5.30 | 6.70 |  |
| Cc1cc(N2CCN(CCCc3cccnc3)CC2)cnc1C(NC(=O)c1cc2cccc(C)c2[nH]1)C1CC1 (stereo not shown) [compound 440] |  | 6.10 | 5.30 |
| Cc1cc(CC(=O)N2CCN(C)CC2)cnc1C(NC(=O)c1cc2cccc(C)c2[nH]1)C1CC1 (stereo not shown) [compound 441] | 5.29 | 5.36 |  |
| Cc1ccc(CN2CCOCC2)cc1NC(=O)c1cc2cccc(C)c2[nH]1 [compound 442] |  | 5.68 | 5.29 |
| Cc1cccc2cc(C(=O)Nc3cccc(N4CCN(S(=O)(=O)CCN)CC4)n3)[nH]c12 [compound 443] |  | 6.22 | 5.29 |
| Cc1ccc(F)c2cc(C(=O)Nc3cccc(-c4cc(N)n[nH]4)c3)[nH]c12 [compound 444] | 5.28 | 6.40 |  |
| Cc1cc(-c2ncc[nH]2)cnc1C(NC(=O)c1cc2cccc(C)c2[nH]1)C1CC1 (stereo not shown) [compound 445] |  | 5.85 | 5.28 |
| Cc1cccnc1C(CCC(=O)N(C)C)NC(=O)c1cc2cccc(C)c2[nH]1 (stereo not shown) [compound 446] |  | 5.20 | 5.27 |

| SMILES | pIC50 (H3K36me3 in A549 cells) | pIC50 (SETD2(1434-1711)) | pIC50 (H3K36me3 in A549 cells; Homo sapiens) |
| --- | --- | --- | --- |
| Cc1cc(CCNC(=O)Cc2cccnc2)cnc1C(NC(=O)c1cc2cccc(C)c2[nH]1)C1CC1 (stereo not shown) [compound 447] | 5.26 | 5.55 |  |
| Cc1cccc2cc(C(=O)Nc3ccc4ccc(C(=O)N5CCN(C)CC5)cc4c3)[nH]c12 [compound 448] | 5.26 | 6.05 |  |
| Cc1cccc2cc(C(=O)Nc3cccc(N4CCN(S(=O)(=O)CCN)CC4)c3)[nH]c12 [compound 449] |  | 6.70 | 5.26 |
| Cc1ccnnc1C(NC(=O)c1cc2c(F)ccc(C)c2[nH]1)C1CC1 (stereo not shown) [compound 450] |  | 5.64 | 5.25 |
| Cc1cc(C(=O)N[C@H]2CC[C@H]2N)cnc1C(NC(=O)c1cc2cccc(C)c2[nH]1)C1CC1 (stereo partly shown) [compound 451] |  | 6.40 | 5.25 |
| Cc1cccc2cc(C(=O)Nc3cccc(N4CCC(NCCN)CC4)c3)[nH]c12 [compound 452] |  | 7.22 | 5.24 |
| Cc1cccc2cc(C(=O)Nc3ccc4ccc(CN5CCN(C)CC5)cc4c3)[nH]c12 [compound 453] |  | 6.15 | 5.24 |
| Cc1ccc(F)c2cc(C(=O)Nc3cccc(S(N)(=O)=O)c3)[nH]c12 [compound 454] |  | 5.55 | 5.23 |
| Cc1cc(C(=O)N[C@@H]2CC[C@H]2N)cnc1C(NC(=O)c1cc2cccc(C)c2[nH]1)C1CC1 (stereo partly shown) [compound 455] |  | 6.40 | 5.23 |
| Cc1ccc(NC(=O)c2cc3cccc(C)c3[nH]2)cc1CN1CCOCC1 [compound 456] |  | 5.85 | 5.21 |
| Cc1ccc(F)c2cc(C(=O)NC3C(=O)NCc4ccccc43)[nH]c12 (stereo not shown) [compound 458] |  | 5.66 | 5.21 |
| Cc1cccc2cc(C(=O)Nc3ccc4nccn4c3)[nH]c12 [compound 459] | 5.21 | 5.82 |  |
| Cc1cccnc1C(CCC(=O)N1CCn2cncc2C1)NC(=O)c1cc2cccc(C)c2[nH]1 (stereo not shown) [compound 460] |  | 5.35 | 5.21 |
| COc1cccc(CNCC(O)COc2cnc(C(NC(=O)c3cc4cccc(C)c4[nH]3)C3CC3)c(C)c2)c1 (stereo not shown) [compound 461] | 5.20 | 6.30 |  |
| CCc1cccc2cc(C(=O)NC(CCC(=O)N3CCOCC3)c3ncccc3C)[nH]c12 (stereo not shown) [compound 464] | 5.18 | 5.08 |  |
| Cc1cccc2cc(C(=O)Nc3ccc4cnc(CN5CCN(C)CC5)cc4c3)[nH]c12 [compound 465] |  | 6.40 | 5.18 |
| Cc1cccc2cc(C(=O)Nc3ccc4cncnc4c3)[nH]c12 [compound 466] | 5.15 | 5.72 |  |
| Cc1cccc2cc(C(=O)Nc3cccc(N4CCN(CCN)CC4)c3)[nH]c12 [compound 467] |  | 6.40 | 5.14 |
| Cc1ccc(F)c2cc(C(=O)Nc3cccc(N4CCOCC4CN(C)C)c3)[nH]c12 (stereo not shown) [compound 468] |  | 6.05 | 5.12 |
| Cc1ccc(N2CCN(C)CC2)cc1NC(=O)c1cc2cccc(C)c2[nH]1 [compound 469] |  | 5.85 | 5.10 |
